Measured values published in patent US20110044938A1 (NYCOMED GMBH, priority 2006, published 2011).

What was measured:
[1] = test system: RKO (RKOp27) human colon adenocarcinoma cells; assay: Alamar Blue cell viability assay, anti-proliferative/cytotoxic activity on proliferating RKO subclones; assay type: cell-based; details: RKOp27, 72 h, RKO p27 uninduced (proliferating) cells, value = class bound given in Table A, read-out: −logIC50 RKO p27 uninduced (proliferating) (converted)
Procedure, shortened: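 Alamar Blue fluorescence (ex 544, em 590 nm) after 72 h compound exposure at 37 °C, 5% CO2, normalised to untreated controls set at 100%. Cells were seeded at 5000 per well and dosed 24 h later with serial semi-logarithmic dilutions in 10% FCS DMEM, four replicates each. −log IC50 [mol/l] was derived from concentration-effect curves.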

[2] = test system: subclones of RKO colon adenocarcinoma cells (RKOp27 or RKOp21) arrested by Ponasterone A; assay: Alamar Blue cell viability assay, cell cycle specific mode of action: cells arrested by ectopic p27Kip1 induced by Ponasterone A versus proliferating cells; assay type: cell-based; details: Homo sapiens, RKO p27 induced (arrested) cells, 10 μM Ponasterone A, 72 hours, value = class bound given in Table A, read-out: −logIC50 RKO p27 induced (arrested) (converted)
Procedure, shortened: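 Viability of proliferating versus Ponasterone A (10 μM)-arrested RKOp27/RKOp21 cells after 72 h compound exposure at 37° C, in quadruplicate. Read-out is Alamar Blue fluorescence (544/590 nm) normalised to untreated cells = 100%; values as −log IC50.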

SMILES | IC50 [1] | IC50 [2]
COc1cccc(CCC(=O)Nc2sc3c(c2C#N)CCC(OC(=O)NCc2cc(C)on2)C3)c1 (stereo not shown) [Example 224, (5-Methyl-isoxazol-3-ylmethyl)-carbamic acid 3-cyano-2-[3-(3-methoxy-phenyl)-propanoylamino]-4,5,6,7-tetrahydro-benzo[b]thiophen-6-yl ester] | 501 to 2000 nM | ≥ 100000 nM
CCOc1ccccc1CCC(=O)Nc1sc2c(c1C#N)CCC(OC(=O)NCc1ccccc1)C2 (stereo not shown) [Example 155, Benzyl-carbamic acid 3-cyano-2-[3-(2-ethoxy-phenyl)-propanoylamino]-4,5,6,7-tetrahydro-benzo[b]thiophen-6-yl ester] | ≤ 501 nM | ≥ 100000 nM
CCOc1ccccc1CCC(=O)Nc1sc2c(c1C#N)CCC(OC(=O)NCc1cncn1C)C2 (stereo not shown) [Example 167, (3-Methyl-3H-imidazol-4-ylmethyl)-carbamic acid 3-cyano-2-[3-(2-ethoxy-phenyl)-propanoylamino]-4,5,6,7-tetrahydro-benzo[b]thiophen-6-yl ester] | ≤ 501 nM | ≥ 10000 nM
COc1cccc(CCC(=O)Nc2sc3c(c2C#N)CCC(COC(=O)NCc2cnoc2C)C3)c1 (stereo not shown) [Example 242, (5-Methyl-isoxazol-4-ylmethyl)-carbamic acid 3-cyano-2-[3-(3-methoxy-phenyl)-propanoylamino]-4,5,6,7-tetrahydro-benzo[b]thiophen-6-ylmethyl ester] | ≤ 501 nM | ≥ 100000 nM
N#Cc1c(NC(=O)/C=C/c2cccnc2)sc2c1CC[C@H](COC(=O)N1CCCC1)C2 [Example 68a, Pyrrolidme-1-carboxyhc acid (S)-3-cyano-2-((E)-3-pyridin-3-yl-allanoylamino)-4,5,6,7-tetrahydro-benzo[b]thiophen-6-ylmethyl ester] | ≤ 501 nM | ≥ 100000 nM
CC(C)N(C)C(=O)OCC1CCc2c(sc(NC(=O)/C=C/c3cccnc3)c2C#N)C1 (stereo not shown) [Example 97, Isopropyl-methyl-carbamic acid 3-cyano-2-((E)-3-pyridin-3-yl-allanoylamino)-4,5,6,7-tetrahydro-benzo[b]thiophen-6-ylmethyl ester] | ≤ 501 nM | ≥ 100000 nM
N#Cc1c(NC(=O)CCc2cccnc2)sc2c1CCC(COC(=O)N1CCCC1)C2 (stereo not shown) [Example 258, Pyrrolidine-1-carboxylic acid 3-cyano-2-(3-pyridin-3-yl-propanoylamino)-4,5,6,7-tetrahydro-benzo[b]thiophen-6-ylmethyl ester] | 501 to 2000 nM | ≥ 100000 nM
CNC(=O)OC[C@@H]1CCc2c(sc(NC(=O)/C=C/c3cccnc3)c2C#N)C1 [Example 16b, Methyl-carbarnic acid (R)-3-cyano-2-((E)-3-pyridin-3-yl-allanoylamino)-4,5,6,7-tetrahydro-benzo[b]thiophen-6-ylmethyl ester] | 501 to 2000 nM | ≥ 100000 nM
N#Cc1c(NC(=O)/C=C/c2cccnc2)sc2c1CCC(OC(=O)NCC1CC1)C2 (stereo not shown) [Example 109, Cyclopropylmethyl-carbamic acid 3-cyano-2-((E)-3-pyridin-3-yl-allanoylamino)-4,5,6,7-tetrahydro-benzo[b]thiophen-6-yl ester] | ≤ 501 nM | ≥ 100000 nM
CCOc1ccccc1CCC(=O)Nc1sc2c(c1C#N)CCC(COC(=O)N1CCCC1)C2 (stereo not shown) [Example 201, Pyrrolidine-1-carboxylic acid 3-cyano-2-[3-(2-ethoxy-phenyl)-propanoylamino]-4,5,6,7-tetrahydro-benzo[b]thiophen-6-ylmethyl ester] | ≤ 501 nM | ≥ 100000 nM
CNC(=O)OCC1CCc2c(sc(NC(=O)/C=C/c3cccnc3)c2C#N)C1 (stereo not shown) [Example 16, Methyl-carbamic acid 3-cyano-2-((E)-3-pyridin-3-yl-allanoylamino)-4,5,6,7-tetrahydro-benzo[b]thiophen-6-ylmethyl ester] | ≤ 501 nM | ≥ 100000 nM
N#Cc1c(NC(=O)/C=C/c2cccnc2)sc2c1CCC(OC(=O)N1CC(F)C1)C2 (stereo not shown) [Example 124, 3-Fluoro-azetidine-1-carboxylic acid 3-cyano-2-((E)-3-pyridin-3-yl-allanoylamino)-4,5,6,7-tetrahydro-benzo[b]thiophen-6-yl ester] | ≤ 501 nM | ≥ 100000 nM
N#Cc1c(NC(=O)/C=C/c2cccnc2)sc2c1CC[C@H](COC(=O)N1CC(O)C1)C2 [Example 73a, 3-Hydroxy-azetidine-1 - carboxylic acid (S)-3-cyano-2-((E)-3-pyridin-3-yl-allanoylamino)-4,5,6,7-tetrahydro-benzo[b]thiophen-6-ylmethyl ester] | ≤ 501 nM | ≥ 100000 nM
Cc1nocc1CNC(=O)OC1CCc2c(sc(NC(=O)CC(C)c3cccnc3)c2C#N)C1 (stereo not shown) [Example 355, (3-Methyl-isoxazol-4-ylmethyl)-carbamic acid 3-cyano-2-(3-pyridin-3-yl-butanoylamino)-4,5,6,7-tetrahydro-benzo[b] thiophen-6-yl ester] | 501 to 2000 nM | ≥ 100000 nM
Cc1n[nH]cc1CNC(=O)OCC1CCc2c(sc(NC(=O)CC(C)c3ccccc3)c2C#N)C1 (stereo not shown) [Example 317, (3-Methyl-1H-pyrazol-4-ylmethyl)-carbamic acid 3-cyano-2-(3-phenyl-butanoylamino)-4,5,6,7-tetrahydro-benzo[b] thiophen-6-ylmethyl ester] | ≤ 501 nM | ≥ 10000 nM
CCn1nccc1CNC(=O)OC1CCc2c(sc(NC(=O)CC(C)c3ccccc3)c2C#N)C1 (stereo not shown) [Example 303, (2-Ethyl-2H-pyrazol-3-ylmethyl)-carbamic acid 3-cyano-2-(3-phenyl-butanoylamino)-4,5,6,7-tetrahydro-benzo[b] thiophen-6-yl ester] | ≤ 501 nM | ≥ 50100 nM
CCOc1ccccc1CCC(=O)Nc1sc2c(c1C#N)CCC(COC(=O)NCCn1ccnc1)C2 (stereo not shown) [Example 164, (2-Imidazol-1-yl-ethyl)-carbamic acid 3-cyano-2-[3-(2-ethoxy-phenyl)-propanoylamino]-4,5,6,7-tetrahydro-benzo[b]thiophen-6-ylmethyl ester] | ≤ 501 nM | ≥ 10000 nM
COc1cccc(CCC(=O)Nc2sc3c(c2C#N)CCC(COC(=O)NCCn2ccnc2)C3)c1 (stereo not shown) [Example 236, (2-Imidazol-1-yl-ethyl)-carbamic acid 3-cyano-2-[3-(3-methoxy-phenyl)-propanoylamino]-4,5,6,7-tetrahydro-benzo[b]thiophen-6-ylmethyl ester] | 501 to 2000 nM | ≥ 100000 nM
CC(CC(=O)Nc1sc2c(c1C#N)CCC(OC(=O)NCC1CCCO1)C2)c1ccccc1 (stereo not shown) [Example 297, (Tetrahydro-furan-2-ylmethyl)-carbamic acid 3-cyano-2-(3-phenyl-butanoyl-amino)-4,5,6,7-tetrahydro-benzo[b]thiophen-6-yl ester] | 501 to 2000 nM | ≥ 10000 nM
Cn1cnc(CNC(=O)OCC2CCc3c(sc(NC(=O)/C=C/c4cccnc4)c3C#N)C2)c1 (stereo not shown) [Example 44, (1-Methyl-1H-imidazol-4-ylmethyl)-carbamic acid 3-cyano-2-((E)-3-pyridin-3-yl-allanoylamino)-4,5,6,7-tetrahydro-benzo[b]thiophen-6-ylmethyl ester] | ≤ 501 nM | ≥ 100000 nM
N#Cc1c(NC(=O)/C=C/c2cccnc2)sc2c1CCC(COC(=O)NC1CC1)C2 (stereo not shown) [Example 99, Cyclopropyl-carbamic acid 3-cyano-2-((E)-3-pyridin-3-yl-allanoylamino)-4,5,6,7-tetrahydro-benzo[b]thiophen-6-ylmethyl ester] | ≤ 501 nM | ≥ 100000 nM
CC(CC(=O)Nc1sc2c(c1C#N)CCC(OC(=O)NC(C)c1ccnn1C)C2)c1ccccc1 (stereo not shown) [Example 299, [1-(2-Methyl-2H-pyrazol-3-yl)-ethyl]-carbamic acid 3-cyano-2-(3-phenyl-butanoylamino)-4,5,6,7-tetrahydro-benzo[b]thiophen-6-yl ester] | ≤ 501 nM | ≥ 50100 nM
COc1cccc(C(C)CC(=O)Nc2sc3c(c2C#N)CCC(COC(=O)NCc2ccncc2)C3)c1 (stereo not shown) [Example 326, Pyridin-4-ylmethyl-carbamic acid 3-cyano-2-[3-(3-methoxy-phenyl)-butanoylamino]-4,5,6,7-tetrahydro-benzo[b]thiophen-6-ylmethyl ester] | 501 to 2000 nM | ≥ 10000 nM
COCCNC(=O)OC1CCc2c(sc(NC(=O)/C=C/c3cccnc3)c2C#N)C1 (stereo not shown) [Example 18, (2-Methoxy-ethyl)-carbamic acid 3-cyano-2-((E)-3-pyridin-3-yl-allanoylamino)-4,5,6,7-tetrahydro-benzo[b]thiophen-6-yl ester] | 501 to 2000 nM | ≥ 100000 nM
COC(=O)OCC1CCc2c(sc(NC(=O)CCc3cccc(OC)c3)c2C#N)C1 (stereo not shown) [Example 255, Carbonic acid 3-cyano-2-[3-(3-methoxy-phenyl)-propanoylamino]-4,5,6,7-tetrahydro-benzo[b]thiophen-6-ylmethyl ester methyl ester] | 501 to 2000 nM | ≥ 100000 nM
N#Cc1c(NC(=O)/C=C/c2cccnc2)sc2c1CCC(COC(=O)N1CC(O)C1)C2 (stereo not shown) [Example 73, 3-Hydroxy-azetidine-1-carboxylic acid 3-cyano-2-((E)-3-pyridin-3-yl-allanoylamino)-4,5,6,7-tetrahydro-benzo[b]thiophen-6-ylmethyl ester] | ≤ 501 nM | ≥ 100000 nM
